From US20240317792A1, “CYCLIC DINUCLEOTIDE METAL COMPOUND, AND PREPARATION AND APPLICATION THEREOF” (HANGZHOU XINGAO BIOTECHNOLOGY CO., LTD., priority 2022, published 2024)

Assays:
[1] = system: mouse colorectal cancer cell line CT26; test: Subcutaneously transplanted CT26 tumor growth inhibition; assay type: in vivo, BALB/c ordinary mice; conditions: CT26 in BALB/c mice; 10 mg/kg intraperitoneal once every 2 days for 20 days
From the text: Experimental animals: BALB/c ordinary mice and C57BL/6 ordinary mice, male, weighing 20-22 grams, 7-8 weeks old, purchased from Shanghai SLAC Laboratory Animal Co. Ltd.
Tumour cell line: mouse colorectal cancer cell line CT26 and mouse breast cancer cell line 4T1, both purchased from Chinese Academy of Sciences Cell Bank.
Establishment and intervention of tumor model mice: cells were subjected to culture and subculture, collected in a logarithmic phase and prepared as 1.0×10^7/mL of cell suspension. 0.2 mL of the cell suspension was injected armpits of forelegs of the mice (with a cell number of 2.0×10^6), and tumor transplantation was successful in about 7 days. Mice with successful tumor transplantation were randomly divided into 7 groups (10 mice in each group). The 7 groups were listed as follows: A: negative control group (injection with normal saline); B: positive control cGAMP group (10 mg/kg of injection); C: [Li2(cGAMP)] group (10 mg/kg of injection); D: [Mg(cGAMP)] group (10 mg/kg of injection); E: [Zn(cGAMP)] group (10 mg/kg of injection); F: [Mn(cGAMP)] group (10 mg/kg of injection); and G: [Fe(cGAMP)] group (10 mg/kg of injection). The mice with successful tumor transplantation were subjected to administration by intraperitoneal injection with a volume of 200 μL per mice once every 2 days for 20 days. After 20 days, the mice with successful tumor transplantation were killed, and the tumor were weighed. A formula of inhibitory rate of tumor was as represented as inhibitory rate of tumor=[1−average tumor weight of experimental group/average tumor weight of the negative control group]×100%.
According to the establishment of tumor model mice, the mouse colorectal cancer cell line CT26 was cultured and transplanted to the BALB/c ordinary mice, and the mouse breast cancer cell line 4T1 was cultured and transplanted to the BALB/c ordinary mice.
Statistical analysis: data was expressed as mean±standard deviation and processed by the SPSS10.0 software. One-way ANOVA was used to detect and compare significance of tumor weights in each group.

[2] = system: Dendritic cells (DCs) (CD40\CD80\CD86\MHCII); test: Flow cytometry of dendritic cell activation markers after immunization; assay type: in vivo, C57BL/6 ordinary mice; conditions: fluorescence intensity (MFI), after 14 days of immunization
From the text: Experimental animals: C57BL/6 ordinary mice, male, weighing 20-22 grams, 7-8 weeks old, purchased from Shanghai SLAC Laboratory Animal Co. Ltd.
The mice were randomly divided into 8 groups (10 mice in each group). The 8 groups were as listed follows: A: Negative control group (isotype control antibody group); B: blank group; C: cyclic dinucleotide group; D: [Li2(cGAMP)] group; E: [Mg(cGAMP)] group; F: [Zn(cGAMP)] group; G: [Mn(cGAMP)] group; and H: [Fe(cGAMP)] group. Isotype control flow antibody was purchased from eBiosciences, antibody magnetic strain was purchased from Militeny Biotech, and flow cytometry was purchased from BD company. After 14 days of immunization (immunization process was the same as that in the Example 12), spleens and lung tissues of the mice were collected, respectively mashed, filtered through 40 micron pores followed by 1000 rpm of centrifugation for 10 min to solate unlysed immune cells. Dendritic cells (DCs) (CD40\CD80\CD86\MHCII), T(CD8+) cells were separated, and added with corresponding FAC antibodies (diluted with Fluorescence-Activated Cell Sorting (FACS) buffer). Isotype control antibody was used as negative control. After antibody addition, the DCs and T (CD8+) cells were incubate for 1 h, centrifuged and washed by phosphate buffer saline (PBS) followed by analysis by the flow cytometry to sort suitable cells. Fluorescence intensity (MFI) of sorted cells was measured.

[3] = system: IFN-β; test: IFN-β content in blood induced by the compounds, over time by ELISA; assay type: in vivo; conditions: SD mice serum, sampled 0-24 h, peak of concentration change curve
Description: Experimental animals: SD mice, weighing 200-220 g, were purchased from Shanghai SLAC Laboratory Animal Co. Ltd.
Main test steps: The SD mice were randomly divided into 7 groups (10 mice in each group). The 7 groups were listed as follows: blank control group (injection of normal saline); cGAMP group; [Li2(cGAMP)] group; [Mg(cGAMP)] group; [Zn(cGAMP)] group; [Mn(cGAMP)] group; and [Fe(cGAMP)] group. At fixed time points (0 h, 1 h, 2 h, 4 h, 6 h, 8 h, 10 h, 12 h, 14 h, 16 h, 20 h, and 24 h), 1 mL of blood of each of the SD mice was taken through ophthalmic vein by a capillary, placed in a 1.5 mL of centrifuge tube followed by centrifugation for 30 min. Upper serum was collected and stored at −80° C. for use. Concentrations of cGAMP and IFN-β in the serum were determined by ELISA kit. Based on IFN-β induced by activation of innate immunity paths of the cGAMP and the cyclic dinucleotide metal compounds, a content of the IFN-β in the blood was detected, and stability and activation activity of immune path of the cGAMP and the cyclic dinucleotide metal compounds were evaluated. Concentration values (including cGAMP and IFN-β) in blood samples of the SD mice in each group were detected by the ELISA kit, and the concentration values and average values at each time point were calculated. A concentration change curve over time was drawn, and a peak of the concentration change curve was obtained.

Row | SMILES | Average inhibitory rate of the tumor [1] [%] | Average tumor weight [1] [g] | Spleen CD40 [2] | Spleen CD80 [2] | Spleen CD86 [2] | Spleen MGCII [2] | Time to peak serum IFN-β concentration [3] [h]
1 | Nc1nc2c(ncn2C2OC3COP(=O)([O-])OC4C(COP(=O)([O-])OC2C3O)OC(n2cnc3c(N)ncnc32)C4O)c(=O)[nH]1.[Fe+2] (stereo not drawn) [[Fe(cGAMP)], ferrous cyclic dinucleotide] | 83.5 | 0.301 ± 0.112 | 236.8 | 134.6 | 24.1 | 247.1 | 5.6
2 | Nc1nc2c(ncn2[C@@H]2O[C@@H]3COP(=O)(O)O[C@H]4[C@@H](O)[C@H](n5cnc6c(N)ncnc65)O[C@@H]4COP(=O)(O)O[C@@H]2[C@@H]3O)c(=O)[nH]1 [cGAMP, 2′3′-cGAMP, reference compound] | 61.0 | 0.712 ± 0.145 | 120.5 | 112.1 | 16.5 | 208.1 | 4.0
3 | Nc1nc2c(ncn2[C@@H]2O[C@@H]3COP(=O)([O-])O[C@H]4[C@@H](O)[C@H](n5cnc6c(N)ncnc65)O[C@@H]4COP(=O)([O-])O[C@@H]2[C@@H]3O)c(=O)[nH]1.[Mg+2] [[Mg(cGAMP)], magnesium cyclic dinucleotide] | 65.2 | 0.635 ± 0.178 | 156.6 | 234.6 | 36.8 | 338.2 | 5.9
4 | Nc1nc2c(ncn2C2OC3COP(=O)([O-])OC4C(COP(=O)([O-])OC2C3O)OC(n2cnc3c(N)ncnc32)C4O)c(=O)[nH]1.[Mn+2] (stereo not drawn) [[Mn(cGAMP)], manganese cyclic dinucleotide] | 85.8 | 0.258 ± 0.105 | 255.9 | 132.6 | 26.3 | 276.3 | 6.0
5 | Nc1nc2c(ncn2[C@@H]2O[C@@H]3COP(=O)([O-])O[C@H]4[C@@H](O)[C@H](n5cnc6c(N)ncnc65)O[C@@H]4COP(=O)([O-])O[C@@H]2[C@@H]3O)c(=O)[nH]1.[Li+].[Li+] [[Li2(cGAMP)], lithium cyclic dinucleotide] | 63.0 | 0.675 ± 0.163 | 136.2 | 157.6 | 21.7 | 250.8 | 5.6
6 | Nc1nc2c(ncn2[C@@H]2O[C@@H]3COP(=O)([O-])O[C@H]4[C@@H](O)[C@H](n5cnc6c(N)ncnc65)O[C@@H]4COP(=O)([O-])O[C@@H]2[C@@H]3O)c(=O)[nH]1.[Zn+2] [[Zn(cGAMP)], zinc cyclic dinucleotide] | 88.9 | 0.201 ± 0.123 | 264.7 | 245.7 | 42.6 | 424.5 | 6.2
